Data reported in patent publication US12616685B2, “Concomitant administration of glucocorticoid receptor modulator relacorilant and CYP2C9 substrates” (Corcept Therapeutics Incorporated, priority 2020, dated 2026).

Columns and labels:
[1] = Clinical drug-drug interaction study in healthy volunteers (tolbutamide alone vs with relacorilant); conditions: for effect of relacorilant co-administration on AUC0-tz and AUCinf / reduction of Cmax on co-administration of relacorilant: 500 mg tolbutamide with 350 mg relacorilant vs tolbutamide alone; for AUC0-tz, Ratio of Geometric LSMs (%) / AUCinf, Ratio of Geometric LSMs (%) / Cmax, Ratio of Geometric LSMs (%): 100*(Test/Reference), Treatment E (with relacorilant) vs Treatment B (tolbutamide alone)
Procedure: An open-label, crossover study was conducted in healthy subjects to determine the effect of relacorilant on the plasma exposure of tolbutamide, a known substrate of CYP2C9. A single 500 mg dose of tolbutamide was administered alone and pharmacokinetic (PK) samples were collected before dosing (0 hour) and at 0.5, 1, 1.5, 2, 2.5, 3, 4, 6, 8, 12, 18, 24, 36, and 48 hours post-dose. Relacorilant (350 mg) was then administered once a day for 10 consecutive days. On the following day, a single 500 mg dose of tolbutamide was administered in combination with relacorilant 350 mg and pharmacokinetic (PK) samples were again collected at pre-dose through 48 hours post-dose at the same timepoints as described above. The plasma concentrations of tolbutamide and its metabolite, 4-hydroxy tolbutamide were evaluated by validated bioanalytical assays on each dosing occasion of tolbutamide.
• ANOVA, analysis of variance; AUCinf, AUC from time 0 extrapolated to infinity; AUC0-tz, AUC from time 0 until the time of the last measurable concentration; Cmax, maximum plasma concentration; CV %, coefficient of variation; LSM, least squares mean. • Treatment B: Single oral dose of 500 mg tolbutamide (Reference). • Treatment E: Single oral dose of 500 mg tolbutamide and 350 mg relacorilant administered on Day 15 followed by oral doses of 350 mg relacorilant administered QD on Days 16 and 17 (Test). • Parameters were ln-transformed prior to analysis. • Geometric Least Square means (LSMs) were calculated by exponentiating the LSMs from the ANOVA. • Ratio of Geometric LSMs=100*(Test/Reference); where Test is Treatment E and Reference is Treatment B.

[2] = target: CYP2C9 (Homo sapiens, UniProt P11712); assay: biochemical
Sequence of CYP2C9 (P11712 whole entry): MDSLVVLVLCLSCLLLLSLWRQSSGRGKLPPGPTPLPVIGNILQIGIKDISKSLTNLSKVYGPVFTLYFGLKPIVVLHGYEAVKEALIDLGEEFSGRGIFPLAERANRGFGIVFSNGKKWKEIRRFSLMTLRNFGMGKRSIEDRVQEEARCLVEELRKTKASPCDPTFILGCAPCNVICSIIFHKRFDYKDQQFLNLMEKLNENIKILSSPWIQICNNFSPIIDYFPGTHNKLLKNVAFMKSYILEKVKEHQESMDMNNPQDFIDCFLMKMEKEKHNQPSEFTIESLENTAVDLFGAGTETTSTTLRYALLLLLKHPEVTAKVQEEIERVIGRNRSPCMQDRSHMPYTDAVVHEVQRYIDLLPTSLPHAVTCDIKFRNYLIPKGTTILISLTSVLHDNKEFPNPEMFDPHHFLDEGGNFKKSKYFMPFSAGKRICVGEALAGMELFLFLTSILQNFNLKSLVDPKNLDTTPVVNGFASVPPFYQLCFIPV

[3] = co-administered with CYP2C9 inhibitor sulfaphenazole, human subjects; Perkins et al. 2018; cited from earlier work
[4] = plasma, single oral 500 mg tolbutamide alone, healthy subjects
[5] = plasma, single oral 500 mg tolbutamide with 350 mg relacorilant after once-daily relacorilant, healthy subjects

With `CCCCNC(=O)NS(=O)(=O)c1ccc(CO)cc1` [4-OH Tolbutamide, 4-hydroxy tolbutamide] the “effect of relacorilant co-administration on AUC0-tz and AUCinf” value [1] was “no effect”, the “reduction of Cmax on co-administration of relacorilant” value [1] was “approximately 37%” and the “AUC0-tz, Ratio of Geometric LSMs (%)” value [1] was 88.80%. For the same molecule, the “AUCinf, Ratio of Geometric LSMs (%)” value [1] was 89.91%, the “Cmax, Ratio of Geometric LSMs (%)” value [1] was 63.49% and the “AUC0-tz, Geometric LSM, Reference (Day 2) Treatment B” value [1, 4] was 8.619 µg·h/mL. For the same molecule, the “AUCinf, Geometric LSM, Reference (Day 2) Treatment B” value [1, 4] was 8.954 µg·h/mL, the “Cmax, Geometric LSM, Reference (Day 2) Treatment B” value [1, 4] was 604.3 ng/mL and the “AUC0-tz, Geometric LSM, Test (Day 15) Treatment E” value [1, 5] was 7.653 µg·h/mL. The “AUCinf, Geometric LSM, Test (Day 15) Treatment E” value [1, 5] was 8.051 µg·h/mL and the “Cmax, Geometric LSM, Test (Day 15) Treatment E” value [1, 5] was 383.6 ng/mL.
In the case of `Cn1cc(S(=O)(=O)N2CCC3=Cc4c(cnn4-c4ccc(F)cc4)C[C@]3(C(=O)c3cc(C(F)(F)F)ccn3)C2)cn1` [Relacorilant, (R)-(1-(4-fluorophenyl)-6-((1-methyl-1H-pyrazol-4-yl)sulfonyl)-4,4a,5,6,7,8-hexahydro-1H-pyrazolo[3,4-g]isoquinolin-4a-yl)(4-(trifluoromethyl)pyridine-2-yl)methanone], the IC50 [2] is reported as 2.1 µM.
In the case of `CCCCNC(=O)NS(=O)(=O)c1ccc(C)cc1` [Tolbutamide, tolbutamide, reference compound], the “effect of relacorilant co-administration on AUC0-tz and AUCinf” value [1] is reported as “no effect”, the “reduction of Cmax on co-administration of relacorilant” value [1] is reported as “approximately 31%” and the “AUC0-tz, Ratio of Geometric LSMs (%)” value [1] is reported as 89.11%. For the same molecule, the “AUCinf, Ratio of Geometric LSMs (%)” value [1] was 89.54%, the “Cmax, Ratio of Geometric LSMs (%)” value [1] was 69.22% and the AUC(0-inf) ([1]; human, plasma, po, 500 mg) was 602 µg·h/mL. For the same molecule, the AUC(0-t) ([1]; human, plasma, po, 500 mg) was 579 µg·h/mL, the Cmax ([1]; human, plasma, po, 500 mg) was 42400 ng/mL and the “fold increase in plasma level of tolbutamide (AUC) with sulfaphenazole” value [3] was “more than 5 fold”.
